Experimental data from ChEMBL document CHEMBL1134933, “Hydroxamate based inhibitors of adenylyl cyclase. Part 2: the effect of cyclic linkers on P-site binding” (Bioorg Med Chem Lett, 2002).

Molecular target: Adenylate cyclase type 5 (Homo sapiens, UniProt O95622)
Test: Inhibitory concentration against Type V Adenyl Cyclase enzyme

Chain of Adenylate cyclase type 5 (O95622 whole entry): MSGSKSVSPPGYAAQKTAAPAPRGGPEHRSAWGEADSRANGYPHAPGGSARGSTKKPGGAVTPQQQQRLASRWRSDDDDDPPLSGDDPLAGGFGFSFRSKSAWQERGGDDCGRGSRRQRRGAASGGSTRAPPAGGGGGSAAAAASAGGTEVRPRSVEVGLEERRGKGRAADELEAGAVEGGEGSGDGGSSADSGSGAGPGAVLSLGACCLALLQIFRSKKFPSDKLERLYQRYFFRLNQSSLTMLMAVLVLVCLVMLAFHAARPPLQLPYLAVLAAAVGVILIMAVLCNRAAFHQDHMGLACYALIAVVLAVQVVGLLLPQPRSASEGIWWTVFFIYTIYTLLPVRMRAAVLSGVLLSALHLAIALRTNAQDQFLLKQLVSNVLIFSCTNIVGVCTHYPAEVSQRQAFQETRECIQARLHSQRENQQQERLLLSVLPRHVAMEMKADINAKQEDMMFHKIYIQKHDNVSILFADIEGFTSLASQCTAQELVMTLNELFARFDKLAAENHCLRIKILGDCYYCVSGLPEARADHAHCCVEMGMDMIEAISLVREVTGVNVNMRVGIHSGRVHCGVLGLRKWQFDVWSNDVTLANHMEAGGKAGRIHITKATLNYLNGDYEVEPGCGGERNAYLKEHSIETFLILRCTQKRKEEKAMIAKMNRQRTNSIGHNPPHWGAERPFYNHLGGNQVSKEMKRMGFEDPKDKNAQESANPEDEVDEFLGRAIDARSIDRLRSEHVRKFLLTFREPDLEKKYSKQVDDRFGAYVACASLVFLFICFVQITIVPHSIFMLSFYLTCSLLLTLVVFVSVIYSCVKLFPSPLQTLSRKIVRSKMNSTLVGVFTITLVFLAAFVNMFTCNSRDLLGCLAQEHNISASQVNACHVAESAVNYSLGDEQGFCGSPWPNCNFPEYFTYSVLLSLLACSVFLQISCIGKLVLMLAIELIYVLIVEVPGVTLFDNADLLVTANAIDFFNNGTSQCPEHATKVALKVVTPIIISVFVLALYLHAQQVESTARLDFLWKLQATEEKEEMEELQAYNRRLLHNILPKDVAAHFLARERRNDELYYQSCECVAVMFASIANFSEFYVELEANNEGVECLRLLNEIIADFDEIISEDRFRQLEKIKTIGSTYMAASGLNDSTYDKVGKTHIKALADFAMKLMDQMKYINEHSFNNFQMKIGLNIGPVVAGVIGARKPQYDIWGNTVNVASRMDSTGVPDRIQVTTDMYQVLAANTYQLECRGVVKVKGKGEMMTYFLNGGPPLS

Compound	IC50 [µM]
Nc1ncnc2c1ncn2[C@@H]1C=C[C@H](OCC(=O)NO)C1 (stereo in doubt; 5d)	96
Nc1ncnc2c1ncn2[C@@H]1CC[C@H](OCC(=O)O)C1	79
Nc1ncnc2c1ncn2[C@@H]1CC[C@H](OCC(=O)NO)C1 (stereo in doubt; 8d)	109
Nc1ncnc2c1ncn2[C@H]1CC[C@@H](OCC(=O)O)C1	> 200
Nc1ncnc2c1ncn2[C@@H]1CC[C@H](OCC(=O)NO)C1 (stereo in doubt; 8b)	10.8
Nc1ncnc2c1ncn2[C@H]1CC[C@H](OCC(=O)O)C1	> 200
Nc1ncnc2c1ncn2[C@H]1CC[C@@H](OCC(=O)NO)C1 (stereo in doubt; 8c)	> 200
Nc1ncnc2c1ncn2[C@@H]1CC[C@@H](OCC(=O)O)C1	> 200
Nc1ncnc2c1ncn2[C@H]1CC[C@@H](OCC(=O)NO)C1 (stereo in doubt; 8a)	110

Further lines, results first:

IC50 [µM]	Compound
98	Nc1ncnc2c1ncn2[C@@H]1C=C[C@H](OCC(=O)O)C1
72	Nc1ncnc2c1ncn2[C@@H]1C=C[C@@H](OCC(=O)O)C1
102	Nc1ncnc2c1ncn2[C@@H]1C=C[C@H](OCC(=O)NO)C1 (stereo in doubt; 5a)
13.6	Nc1ncnc2c1ncn2[C@H]1C=C[C@@H](OCC(=O)NO)C1 (stereo in doubt; 5b)
> 200	Nc1ncnc2c1ncn2[C@H]1C=C[C@H](OCC(=O)O)C1
116	Nc1ncnc2c1ncn2[C@H]1C=C[C@@H](OCC(=O)NO)C1 (stereo in doubt; 5c)
78	Nc1ncnc2c1ncn2[C@H]1C=C[C@@H](OCC(=O)O)C1
